Measurements reported in PubChem BioAssay (NCI).
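A five-concentration, 48-hour dose response in 96-well plates underlies each endpoint, interpolated linearly between surrounding concentrations. GI50 = concentration required for 50% inhibition of growth. The concentration for full growth arrest is given as TGI.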

Experiments:
Experiment in all cases: NCI tumour cell line growth inhibition, 48 h
786-0 renal = tested on: 786-0 renal
A498 renal = tested on: A498 renal
A549 NSCLC = tested on: A549 NSCLC
ACHN renal = tested on: ACHN renal
BT-549 breast = tested on: BT-549 breast
CAKI-1 renal = tested on: CAKI-1 renal
CCRF-CEM leukemia = tested on: CCRF-CEM leukemia
COLO 205 colon = tested on: COLO 205 colon
DU-145 prostate = tested on: DU-145 prostate
EKVX NSCLC = tested on: EKVX NSCLC
HCC-2998 colon = tested on: HCC-2998 colon
HCT-116 colon = tested on: HCT-116 colon
HCT-15 colon = tested on: HCT-15 colon
HL-60(TB) leukemia = tested on: HL-60(TB) leukemia
HOP-62 NSCLC = tested on: HOP-62 NSCLC
HOP-92 NSCLC = tested on: HOP-92 NSCLC
HS 578T breast = tested on: HS 578T breast
HT29 colon = tested on: HT29 colon
IGROV1 ovarian = tested on: IGROV1 ovarian
K-562 leukemia = tested on: K-562 leukemia
KM12 colon = tested on: KM12 colon
LOX IMVI melanoma = tested on: LOX IMVI melanoma
M14 melanoma = tested on: M14 melanoma
MALME-3M melanoma = tested on: MALME-3M melanoma
MCF7 breast = tested on: MCF7 breast
MDA-MB-231 breast = tested on: MDA-MB-231 breast
MDA-MB-435 = tested on: MDA-MB-435
MDA-MB-468 breast = tested on: MDA-MB-468 breast
MOLT-4 leukemia = tested on: MOLT-4 leukemia
NCI-H226 lung = tested on: NCI-H226 lung
NCI-H23 lung = tested on: NCI-H23 lung
NCI-H460 lung = tested on: NCI-H460 lung
NCI-H522 lung = tested on: NCI-H522 lung
NCI/ADR-RES ovarian = tested on: NCI/ADR-RES ovarian
OVCAR-3 ovarian = tested on: OVCAR-3 ovarian
OVCAR-4 ovarian = tested on: OVCAR-4 ovarian
OVCAR-5 ovarian = tested on: OVCAR-5 ovarian
OVCAR-8 ovarian = tested on: OVCAR-8 ovarian
PC-3 prostate = tested on: PC-3 prostate
RPMI-8226 leukemia = tested on: RPMI-8226 leukemia
RXF 393 renal = tested on: RXF 393 renal
SF-268 CNS = tested on: SF-268 CNS
SF-295 CNS = tested on: SF-295 CNS
SF-539 CNS = tested on: SF-539 CNS
SK-MEL-2 melanoma = tested on: SK-MEL-2 melanoma
SK-MEL-28 melanoma = tested on: SK-MEL-28 melanoma
SK-MEL-5 melanoma = tested on: SK-MEL-5 melanoma
SK-OV-3 ovarian = tested on: SK-OV-3 ovarian
SN12C renal = tested on: SN12C renal
SNB-19 CNS = tested on: SNB-19 CNS
SNB-75 CNS = tested on: SNB-75 CNS
SR leukemia = tested on: SR leukemia
SW-620 colon = tested on: SW-620 colon
T-47D breast = tested on: T-47D breast
TK-10 renal = tested on: TK-10 renal
U251 CNS = tested on: U251 CNS
UACC-257 melanoma = tested on: UACC-257 melanoma
UACC-62 melanoma = tested on: UACC-62 melanoma
UO-31 renal = tested on: UO-31 renal

Cc1ccc2c(c1)/C(=C/C(=O)c1cc3ccccc3oc1=O)C(=O)N2
GI50 (786-0 renal): 18.5 µM | TGI (786-0 renal): 32.4 µM | GI50 (A498 renal): > 100 µM | TGI (A498 renal): > 100 µM | GI50 (A549 NSCLC): 34.5 µM | TGI (A549 NSCLC): > 100 µM | GI50 (ACHN renal): 9.6 µM | TGI (ACHN renal): 21.3 µM | GI50 (BT-549 breast): 17.6 µM | TGI (BT-549 breast): 33.7 µM | GI50 (CAKI-1 renal): 12.2 µM | TGI (CAKI-1 renal): 25.3 µM | GI50 (CCRF-CEM leukemia): 6.91 µM | TGI (CCRF-CEM leukemia): 56.5 µM | GI50 (COLO 205 colon): 17.2 µM | TGI (COLO 205 colon): 32.4 µM | GI50 (DU-145 prostate): 17.9 µM | TGI (DU-145 prostate): 32.4 µM | GI50 (EKVX NSCLC): 16.2 µM | TGI (EKVX NSCLC): 29.9 µM | GI50 (HCC-2998 colon): 17.7 µM | TGI (HCC-2998 colon): 32.8 µM | GI50 (HCT-116 colon): 4.45 µM | TGI (HCT-116 colon): 16.8 µM | GI50 (HCT-15 colon): 16.7 µM | TGI (HCT-15 colon): 32.8 µM | GI50 (HL-60(TB) leukemia): 4.32 µM | TGI (HL-60(TB) leukemia): 23.1 µM | GI50 (HOP-62 NSCLC): > 100 µM | TGI (HOP-62 NSCLC): > 100 µM | GI50 (HOP-92 NSCLC): 14.5 µM | TGI (HOP-92 NSCLC): 28.4 µM | GI50 (HS 578T breast): 19.4 µM | TGI (HS 578T breast): 84.6 µM | GI50 (HT29 colon): 20.6 µM | TGI (HT29 colon): 40.5 µM | GI50 (IGROV1 ovarian): 16.2 µM | TGI (IGROV1 ovarian): 29.9 µM | GI50 (K-562 leukemia): 3.91 µM | TGI (K-562 leukemia): 48.7 µM | GI50 (KM12 colon): > 100 µM | TGI (KM12 colon): > 100 µM | GI50 (LOX IMVI melanoma): 14.7 µM | TGI (LOX IMVI melanoma): 27.9 µM | GI50 (M14 melanoma): 15.9 µM | TGI (M14 melanoma): 29.8 µM | GI50 (MALME-3M melanoma): 10.6 µM | TGI (MALME-3M melanoma): 22.5 µM | GI50 (MCF7 breast): 16.4 µM | TGI (MCF7 breast): 34 µM | GI50 (MDA-MB-231 breast): 15 µM | TGI (MDA-MB-231 breast): 28.2 µM | GI50 (MDA-MB-435): 17.6 µM | TGI (MDA-MB-435): 33 µM | GI50 (MDA-MB-468 breast): 10.5 µM | TGI (MDA-MB-468 breast): 23.9 µM | GI50 (MOLT-4 leukemia): 8.56 µM | TGI (MOLT-4 leukemia): 43.2 µM | GI50 (NCI-H226 lung): 18.6 µM | TGI (NCI-H226 lung): 46.8 µM | GI50 (NCI-H23 lung): 16.4 µM | TGI (NCI-H23 lung): 32.8 µM | GI50 (NCI-H460 lung): > 100 µM | TGI (NCI-H460 lung): > 100 µM | GI50 (NCI-H522 lung): 3.26 µM | TGI (NCI-H522 lung): 11.5 µM | GI50 (NCI/ADR-RES ovarian): 17.3 µM | TGI (NCI/ADR-RES ovarian): 34.4 µM | GI50 (OVCAR-3 ovarian): 14.1 µM | TGI (OVCAR-3 ovarian): 27.3 µM | GI50 (OVCAR-4 ovarian): 17.4 µM | TGI (OVCAR-4 ovarian): 33.3 µM | GI50 (OVCAR-5 ovarian): 16.7 µM | TGI (OVCAR-5 ovarian): 30.3 µM | GI50 (OVCAR-8 ovarian): 17.9 µM | TGI (OVCAR-8 ovarian): 34 µM | GI50 (PC-3 prostate): 16.1 µM | TGI (PC-3 prostate): 36 µM | GI50 (RPMI-8226 leukemia): 22.1 µM | TGI (RPMI-8226 leukemia): 63.9 µM | GI50 (RXF 393 renal): 15.8 µM | TGI (RXF 393 renal): 29.3 µM | GI50 (SF-268 CNS): 68.3 µM | TGI (SF-268 CNS): > 100 µM | GI50 (SF-295 CNS): > 100 µM | TGI (SF-295 CNS): > 100 µM | GI50 (SF-539 CNS): 16.2 µM | TGI (SF-539 CNS): 29.7 µM | GI50 (SK-MEL-2 melanoma): 21.1 µM | TGI (SK-MEL-2 melanoma): 54.7 µM | GI50 (SK-MEL-28 melanoma): 17 µM | TGI (SK-MEL-28 melanoma): 30.6 µM | GI50 (SK-MEL-5 melanoma): 24.9 µM | TGI (SK-MEL-5 melanoma): 80.2 µM | GI50 (SK-OV-3 ovarian): > 100 µM | TGI (SK-OV-3 ovarian): > 100 µM | GI50 (SN12C renal): 16.9 µM | TGI (SN12C renal): 31.9 µM | GI50 (SNB-19 CNS): > 100 µM | TGI (SNB-19 CNS): > 100 µM | GI50 (SNB-75 CNS): 82.1 µM | TGI (SNB-75 CNS): > 100 µM | GI50 (SR leukemia): 7.24 µM | TGI (SR leukemia): 74.7 µM | GI50 (SW-620 colon): 14.7 µM | TGI (SW-620 colon): 30.4 µM | GI50 (T-47D breast): 13 µM | TGI (T-47D breast): 34.5 µM | GI50 (TK-10 renal): 20 µM | TGI (TK-10 renal): 34.7 µM | GI50 (U251 CNS): 29.2 µM | TGI (U251 CNS): > 100 µM | GI50 (UACC-257 melanoma): 15.7 µM | TGI (UACC-257 melanoma): 29.6 µM | GI50 (UACC-62 melanoma): 15.5 µM | TGI (UACC-62 melanoma): 33 µM | GI50 (UO-31 renal): 11.3 µM | TGI (UO-31 renal): 23.4 µM
